Experimental data taken from a melting point compilation (Tetko et al.; mined from patent text by program, amines drawn as free bases though some values may be those of a salt).

Compound	melting point
CCNC(=O)c1ccc(C=C2CC3CCC(C2)N3CCC(C(=O)N(C)C)(c2ccccc2)c2ccccc2)cc1	137 to 139 °C
O=C(O)c1nn(Cc2ccc(Cl)cc2Cl)c2c1Cc1cc(Cl)ccc1-2	> 260 °C
O=C(O)CCCCNC(=O)CCCCC1CCSS1 (centres undefined)	98 to 100 °C
O=C(NC=C(c1ccccc1)c1ccccc1)c1sc2ccc(F)cc2c1O	186 to 189 °C
O=[N+]([O-])c1ccc(C(O)c2ccoc2)cc1 (centres undefined)	50 to 52 °C
CCc1nn(-c2ccccc2)nc1C(C#N)C(=O)c1c(C)c(C)nn1C (centres undefined)	119 °C
CCOP(=O)(OCC)C1C(=O)NC(=O)N1C (centres undefined)	95 to 96 °C
CC1(C)CC(C)(C#N)c2cn(-c3ccc(F)cc3)c(C=O)c21 (centres undefined)	165 to 168 °C
COC(=O)Cc1ccc(OCc2ccc(OCc3nc(-c4ccccc4)oc3C)cc2)cc1	93 to 94 °C
COc1cc(C2C3=C(COC3=O)N(C)c3cc4c(cc32)OCO4)cc(OC)c1O (centres undefined)	250 °C
COC1C=C(Br)C(=O)CO1 (centres undefined)	74 to 75 °C
C#Cc1cnn2c(C(F)(F)F)cc(-c3ccc(Cl)cc3)nc12	102 to 103 °C
Cc1c(N)cccc1-c1cn(C)c(=O)c(Nc2ccc(C3C(=O)N(C)CCN3C)cc2)n1 (centres undefined)	133 to 134 °C
CC1=C(CN2CC(C(=O)O)C2)CCc2cc(OCCCc3ccc(F)cc3)ccc21	154 to 155 °C
CC(C)(C)OC(=O)N1[C@@H](Cc2ccc(O[Si](C)(C)C(C)(C)C)c(C(C)(C)C)c2)C(=O)O[C@H](c2ccccc2)[C@@H]1c1ccccc1	75 to 83 °C
CCCCCOc1cc(C=Cc2nc3c(s2)NCCCC3)ccc1OC	124 to 125 °C
CCOC(=O)Cc1cc(C)c(C(=O)c2ccc(Cl)cc2Cl)n1C	90 to 92 °C
C(=C\c1nc2ccccc2n1-c1ccccn1)/c1ccoc1	162 to 164 °C
CNC(=S)NS(=O)(=O)c1cc(CCNC(=O)c2cnc3ccccc3c2)ccc1OC	85 °C
CCCCCCCCCCCCCC1CC(=O)NCCCNCCCCN1 (centres undefined)	72 to 73 °C
COc1ccc(-c2ccc(NC(=O)OC(C)(C)C)cc2)cc1	142 to 147 °C
O=C1Nc2ccc(Cl)cc2C1c1ccccc1Cl (centres undefined)	198 to 200 °C
COc1cc(Cl)c(C(=O)c2c(C)ccc(OC)c2OC(=O)Cc2ccccc2)c(Cl)c1	106 °C
Cc1cc(Nc2ccc(F)cc2)nc(Nc2ccc(S(=O)(=O)N(C)C3CCN(Cc4nccs4)CC3)cc2)n1	220 °C
CCOC(=O)Nc1cc(N(C)C)nc2nc(=O)on12	230 to 240 °C

Compound	melting point
O=C1CCC2(CCN1)Cc1ccccc1C2	164 to 165 °C
CC(C)(C)OC(=O)NCc1ccnc(Cl)n1	86 to 88 °C
N#Cc1ccc(-c2ccc(-c3ccco3)o2)cc1	104 to 105 °C
Clc1ccc(CC2(n3cncn3)CC2)cc1	67 to 68 °C
O=C(C#Cc1ccc(CN2CCC(N3CCCC3)CC2)cc1)Nc1ccc(-c2ccc(Cl)cc2)cc1	191 to 192 °C
COC(=O)C=Cc1nn(-c2ccccc2)c2c1CCC2	147 to 148 °C
CCCCCCCCCCc1ccc(C(=O)COC)c(OC(=O)c2cc(OC)c(OC)cc2OC)c1	80 to 81 °C
O=C(CO)c1ccc(F)cc1	116 to 117 °C
Cc1ccccc1N(CN1C(=O)CSC1=O)C(=O)CCl	133 to 136 °C
Nc1ncnc2c1c(-c1ccccc1)cn2-c1cccc(O)c1	227 to 228 °C
COc1ccc(NC(=O)Nc2ccc(Cl)c(Cl)c2)cc1NS(=O)(=O)c1cc(Cl)cc(Cl)c1	225 to 227 °C
CCCn1c(=O)[nH]c(=O)c2[nH]c(/C=C/c3cc(OC)c(OC)c(OC)c3)nc21	286 to 291 °C
CCCCCCCCc1ccc(OCC(O)Cn2cccn2)cc1 (centres undefined)	88 °C
O=C1CCC(c2ccc(-c3ccc(Cl)cc3)o2)O1 (centres undefined)	100 to 101 °C
CC1C(Cc2ccccc2)C(=O)N(Cc2ccccc2)c2ccccc2N1C(=O)CN1C(=O)c2ccccc2C1=O (centres undefined)	213 to 214 °C
Cc1ccc(NC(=O)c2ccc(CN3CCN(C)CC3)c(C(F)(F)F)c2)cc1-c1ccc2ccncc2c1	153 to 154 °C
CCOC(=O)[C@H](Cc1ccc(O)cc1)NC(=O)c1c(Cl)cccc1Cl	141 to 142 °C
O=C(NC(CO)CO)c1ccc2cc(C(=O)O)[nH]c2c1	240 to 245 °C
CC(C)N(C(=S)ON1C(=O)c2ccccc2C1=O)C(C)C	73 to 75 °C
COc1cc2c3c(nc4ccccc4c3c1)-c1ccc(Cl)cc1N2	240 to 242 °C
COc1ccc(-c2ccnc3c(C(N)=O)ncn23)cc1	246 to 249 °C
CONS(=O)(=O)c1ccc(Cl)c(Cl)c1	146 to 147 °C
O=c1cncc2ccccc2n1	213 °C
Cc1nnc(COc2ccc(Oc3ccccc3)cc2)o1	78 to 79 °C
